Measured values as given in patent US11066421B1, “Synthetic cinchona alkaloids against cancer” (Ares Pharmaceuticals, LLC, priority 2021, dated 2021).
Read-outs that look alike come from different tables or passages of the source.

Experiments:
MOLT-3 = assay: MTT cytotoxicity assay, MOLT-3; assay type: cell-based, human; details: read-out: IC50 against MOLT-3
Method: (§1) Human B-lineage acute lymphoblastic leukemia (ALL) cell line NALM-6 and T-lineage ALL/lymphoma cell line MOLT-3 were obtained from American Type Culture Collection (Manassas, Va.). Cell lines were propagated in RPMI 1640 supplemented with 10% FCS, 4 mM glutamine, 100 units/ml penicillin G, and […] streptomycin sulfate. All tissue culture reagents were obtained from Life Technologies Inc. (Life Technologies, Inc., Gaithersburg, Md.). Cell lines were cultivated for a minimum of two passages after thawing prior to experimentation.
(§2) The cytotoxicity of the compounds were tested against human ALL cell lines using MTT assays (Roche Molecular Biochemicals, Indianapolis, Ind.), as described previously R. K. Narla et al., 1998, Clin Cancer Res 4:1405-14). Briefly, exponentially growing tumor cells were seeded into a 96-well plate at a density of 4×10^4 cells/well and incubated in medium containing the cinchona alkaloid compounds at concentrations ranging from 0.7 to 100 μM for 48 h at 37° C. in a humidified 5% CO2 atmosphere. To each well, 10 μL of MTT (final concentration, 0.5 mg/ml) was added, and the plates were incubated at 37° C. for 4 h to allow MTT to form formazan crystals by reacting with metabolically active cells. The formazan crystals were solubilized overnight at 37° C. in a solution containing 10% SDS and 0.01 M HCl. The absorbance of each well was measured in a microplate reader (Labsystems) at 540 nm and a reference wavelength of 690 nm. To translate the A540 values into the number of live cells in each well, the A540 values were compared to those on standard A540 versus cell number curves generated for each cell line. The percentage of survival was calculated using the formula: % survival=[Live cell number (test)/Live cell number (control)]×100. The IC50 values were calculated by nonlinear regression analysis using the graphed Prism Software version 2.0 (GraphPad Software, Inc., San Diego, Calif.).

NALM-6 = assay: MTT cytotoxicity assay, NALM-6; assay type: cell-based, human; details: read-out: IC50 against NALM-6
Method: as §1, §2

[1] = test system: mammary tumors of MMTV/neu transgenic mice; assay: MMTV/neu transgenic mouse model of HER2+ breast cancer; assay type: in vivo; details: 9-week observation; for tumor shrinkage and tumor growth: AP-8 2 mg/kg i.p. twice daily, paclitaxel 6.7 mg/kg, gemcitabine 33.7 mg/kg; for prevention of tumor progression compared with AP-8: paclitaxel 6.7 mg/kg i.p., gemcitabine 33.7 mg/kg i.p.
Excerpt: The predictive value of genetically engineered mouse (GEM) models to predict the clinical effectiveness of anti-cancer drugs is well established (Richmond A, Su Y. Mouse xenograft models vs GEM models for human cancer therapeutics. Dis Model Mech. 2008; 1(2-3):78-82. doi:10.1241-2/dmm.0.000976). We used the transgenic mouse model of HER2+ chemotherapy-resistant breast cancer to examine the in vivo anti-cancer activity of AP-8. Overexpression of the wild type Neu in the mammary glands of transgenic mice induces metastatic breast cancer. Accordingly, in the MMTV/Neu transgenic strain, the wild-type neu is overexpressed in the mammary gland under the control of the MMTV long terminal repeat. This animal model has been used to analyze the efficacy of new therapeutic approaches to prevent or treat Her2/neu overexpressing malignancies (Uckun, Dibirdik). MMTV/Neu transgenic mice [FVB/N-TgN(MMTV/neu)202MUL; Jackson Laboratory, Bar Harbor, Me.] were bred to produce multiple litters in a controlled SPF environment (12 h light/12 h-dark photoperiod, 22±1° C., 60±10% relative humidity). All mice were housed in microisolator cages (Lab Products, Inc., Maywood, N.Y., USA) containing autoclaved bedding in a controlled specific pathogen-free (SPF) environment (12 h light/12 h-dark photoperiod, 22±1° C., 60±10% relative humidity). Animal studies were approved by the institutional Animal Care and Use Committee of Drug Discovery Enterprises and all animal care procedures conformed to the Guide for the Care and Use of Laboratory Animals of the National Research Council. The genotype of mice was confirmed by multiplex polymerase chain reaction (PCR) tests as previously reported (F. M. Uckun et al., 2007, Bioorganic Med. Chem. 15:800-14; I. Dibirdik et al., 2010, J Nanomed and Nanotechnol. 1:001-4).
Neu transgenic mice carrying one or more tumors were randomly placed in the study. For the evaluation of tumor kinetics, tumor-bearing mice were randomly assigned to either vehicle control or treatment groups. Tumor growth was determined by the measurement of tumors with a caliper in three dimensions three days a week and expressed as tumor volume in cubic millimeters (mm^3). Tumor volumes were calculated using the formula for the volume of a prolate spheroid, V=4/3×3.14×length/2×width/2×depth/2. Due to the large heterogeneity in transgenic tumor volumes on day 0, tumor growth for each mouse was normalized to the starting volume for that particular tumor. Therefore, each mouse also served as its own control, and the tumor growth curves were generated to show the rate of change in tumor volumes.
AP-8 (50 μg˜2 mg/kg in 50 μL DMSO as vehicle) (10 mice, 12 target mammary tumors, Initial average tumor volume=787±125 mm^3) was administered by twice daily intraperitoneal injections on 5 consecutive days per week. Paclitaxel (10 mice, 13 target mammary tumors, Initial average tumor volume=554±79 mm^3) was administered intraperitoneally on days 1, 3, and 5 of each week at a dose level of 6.7 mg/kg ([…]). Gemcitabine (13 mice, 18 target mammary tumors, Initial average tumor volume=549±60 mm^3) was administered intraperitoneally on days 1 and 8 every 4 weeks at a dose level of 33.7 mg/kg (˜1 g/m^2). Control mice (8 mice, 10 mammary tumors, Initial average tumor volume=293±61 mm^3) were treated by twice daily intraperitoneal injections of vehicle alone (50 μL DMSO) on 5 consecutive days per week. […]

| Compound | IC50 (MOLT-3; 48 h) | IC50 (NALM-6; 48 h) | further results |
| --- | --- | --- | --- |
| 2,4,6-Tri (9-O-dihydrocinchonidinyl)pyrimidine [AP-6] | 11.4 µM | 6 µM | – |
| 2,4,6-Tri(9-O-cinchonidinyl)pyrimidine [AP-2] | 5.8 µM | 11.4 µM | – |
| C=CC1CN2CCC1CC2C(Oc1cc(OC(c2ccnc3ccc(OC)cc23)C2CC3CCN2CC3C=C)nc(OC(c2ccnc3ccc(OC)cc23)C2CC3CCN2CC3C=C)n1)c1ccnc2ccc(OC)cc12 (single isomer, unassigned) [AP-3, 2,4,6-Tri(9-O-quininyl)pyrimidine] | 4.5 µM | 3.6 µM | – |
| C=CC1CN2CCC1CC2C(Oc1cc(OC(c2ccnc3ccc(OC)cc23)C2CC3CCN2CC3C=C)nc(OC(c2ccnc3ccc(OC)cc23)C2CC3CCN2CC3C=C)n1)c1ccnc2ccc(OC)cc12 (single isomer, unassigned) [AP-4, 2,4,6-Tri (9-O-quinidinyl)pyrimidine] | 3.1 µM | 2.8 µM | – |
| CC[C@@H]1CN2CCC1C[C@@H]2C(Oc1cc(O[C@@H](c2ccnc3ccc(OC)cc23)[C@@H]2CC3CCN2C[C@@H]3CC)nc(OC(c2ccnc3ccc(OC)cc23)[C@H]2CC3CCN2C[C@H]3CC)n1)c1ccnc2ccc(OC)cc12 (some centres unmarked) [AP-7, 2,4,6-Tri (9-O-dihydroquininyl)pyrimidine] | – | – | IC50 (MOLT-3; Homo sapiens, MOLT-3, 48 h): 3.5 µM; IC50 (NALM-6; Homo sapiens, NALM-6, 48 h): 3.3 µM |
| Nc1ccn([C@@H]2O[C@H](CO)[C@@H](O)C2(F)F)c(=O)n1 [gemcitabine, Gemcitabine] | – | – | tumor shrinkage and tumor growth [1]: Neither paclitaxel nor gemcitabine at the clinically applicable dose levels used in these experiments induced tumor shrinkage; prevention of tumor progression compared with AP-8 [1]: less effective than AP-8 in preventing tumor progression |
| CC(=O)O[C@H]1C(=O)[C@@]2(C)[C@H]([C@H](OC(=O)c3ccccc3)[C@]3(O)C[C@H](OC(=O)[C@H](O)[C@@H](NC(=O)c4ccccc4)c4ccccc4)C(C)=C1C3(C)C)[C@]1(OC(C)=O)CO[C@@H]1C[C@@H]2O [paclitaxel, Paclitaxel] | – | – | tumor shrinkage and tumor growth [1]: Neither paclitaxel nor gemcitabine at the clinically applicable dose levels used in these experiments induced tumor shrinkage; prevention of tumor progression compared with AP-8 [1]: less effective than AP-8 in preventing tumor progression |
